From patent US8580843B2, “Use of diindolylmethane (DIM) compounds and derivatives as neuroprotective agents” (Colorado State University Research Foundation, priority 2008, dated 2013)

Experiments:
[1] = system: 3-nitrotyrosine protein nitration in astrocytes; experiment: Immunofluorescence of 3-nitrotyrosine adducts (protein nitration) in primary astrocytes treated with MPTP and cytokines; format: cell-based, mouse
Procedure: Immunofluorescence. Primary astrocytes were grown to confluence on 20 mm serum-coated glass coverslips and treated with saline or MPTP (10 μM), TNF-α (10 pg/ml), and IFN-γ (1 ng/ml) with or without DIM-C-pPhtBu (10 μM), rosiglitazone (10 μM), the NOS2 inhibitor AMT (25 nM) or NOS 1 inhibitor 7-NI (10 μM), or a DMSO vehicle control 8 hours prior to analysis. Immunofluorescence to confirm culture purity was conducted on cells grown to confluence on the 20 mm glass coverslips. Blocking and antibody hybridization was conducted in 1% BSA (w/v) in PBS, and all washes were conducted in PBS. Images were acquired using a Zeiss 20× air PlanApochromat objective and 6-8 microscopic fields were examined per treatment group over no less than three independent experiments. Fluorescent secondary antibodies were used to detect GFAP (488 nmcx/519 nmcm) and Iba1 or nitrosylated protein (647 nmcx/668 nmcm), respectively, while mounting medium containing DAPI (360 nmcx/460 nmcm) was used to identify cell nuclei.
The effect of NOS2 induction by MPTP and inflammatory cytokines on global protein nitration following NO/peroxynitrite (ONOO—) formation in astrocytes was examined by immunofluorescence (FIG. 3). Immunofluorescence using antibodies against GFAP (FITC) and 3-nitrotyrosine adducts (Cy5) was employed to measure the extent of protein nitration within astrocytes treated with MPTP and cytokines, with or without inclusion of DIM-C-pPhtBu (10 μM), rosiglitazone (10 μM), the high-affinity NOS2 inhibitor AMT (25 nM), the NOSI inhibitor 7-NI (10 μM) or a DMSO vehicle control. […] Co-treatment of astroytes with DIM-C-pPhtBu prevented MPTP-induced increases in nitration, resulting in similar levels of 3-nitrotyrosine adducts as saline-treated control cells (FIG. 3C). Mean intracellular fluorescence for 3-nitrotyrosine was quantified and compared between each treatment group (FIG. 3D).

[2] = system: 3-nitrotyrosine protein adducts in dopaminergic neurons of the substantia nigra; experiment: Protein nitration in dopaminergic neurons of mice treated with MPTP; format: in vivo, C57B1/6 mice; details: 50 mg/Kg oral gavage in corn oil once per day for four days following MPTP; substantia nigra 7 days following MPTP
Procedure: C57B1/6 mice were treated with MPTP (2 injections of 15 mg/kg, 12 hours apart) in the presence and absence of DIM-C-pPhOCH3 (DIM5) and assessed for 3-nitrotyrosine protein adducts (a marker of nitrosative stress and excessive NO/peroxynitrite formation). DIM-C-pPhOCH3 was administered once per day for four days following MPTP treatment by oral gavage in corn oil at 50 mg/Kg and frozen sections through the substantia nigra were prepared 7 days following MPTP. Immunofluorescence images were collected using a 40× Zeiss PlanApochromat objective for tyrosine hydroxylase (green), 3-nitrotyrosine (red), and DAPI (blue; DNA/nuclear stain). […] DIM-C-pPhOCH3 prevented protein nitration in dopaminergic neurons in mice treated with MPTP.

[3] = system: astrocyte activation, NOS2 and NF-κB/GFP expression in striatum; experiment: Anti-inflammatory efficacy in transgenic NF-κB-GFP reporter mice treated with MPTP; format: in vivo, mice (C57B1/6 background); details: 50 mg/Kg oral gavage in corn oil once per day for four days following MPTP; striatum 7 days following MPTP
Procedure: Transgenic NF-κB-GFP reporter mice (C57B1/6 background) were exposed to MPTP (2 injections of 15 mg/kg, 12 hours apart) in the presence and absence of DIM-C-pPhtBu and assessed for activation of astrocytes, expression of NOS2, and expression of GFP (representing NF-kB activity). DIM-C-pPhtBu was administered once per day for four days following MPTP treatment by oral gavage in corn oil at 50 mg/Kg and frozen sections through the striatum were prepared 7 days following MPTP. Immunofluorescent images were collected using a 40× Zeiss PlanApochromat objective for GFAP as marker for astrocytes (purple), NOS2 (red), green fluorescent protein (GFP; green), and DAPI (blue; DNA stain). Co-location of red and green channels is depicted in the image as yellow. […] This activated glial phenotype was inhibited by treatment with DIM-C-pPhtBu.

NF-κB = details: proximal p65 enhancer element; cited from earlier work

COc1ccc(C(c2c[nH]c3ccccc23)c2c[nH]c3ccccc23)cc1 [DIM-C-pPhOCH3, 1,1-bis(3′-indolyl)-1-(p-methoxyphenyl)methane]
Protein nitration in primary astrocytes induced by MPTP and TNF-α/IFN-γ ([1]; FIG. 7(D), concentration not given): prevents protein nitration
Protein nitration (3-nitrotyrosine) in dopaminergic neurons [2]: completely suppressed

CC(C)(C)c1ccc(C(c2c[nH]c3ccccc23)c2c[nH]c3ccccc23)cc1 [DIM-C-pPhtBu, 1,1-bis(3′-indolyl)-1-(p-t-butylphenyl)methane]
MPTP-induced activated glial phenotype (hypertrophic astrocytes expressing NOS2 and NF-κB/GFP) [3]: inhibited
MPTP-induced increase in 3-nitrotyrosine formation ([1]; 10 μM co-treatment, astrocytes, FIG. 3D): prevented

CN(CCOc1ccc(CC2SC(=O)NC2=O)cc1)c1ccccn1 (centres unmarked) [rosiglitazone, 5-((4-(2-(methyl-2-pyridinylamino)ethoxy)phenyl)methyl)-2,4-thiazolidinedione, reference compound]
Effect on NF-κB in RAW macrophages (NF-κB): antagonize NF-κB by stabilizing NCoR2
